In ChEMBL document CHEMBL5233257, “Anticancer property of ginsenoside Rh2 from ginseng” (Eur J Med Chem, 2020):
Values after ≈ are worked out from the molar mass of the structure shown.

Key:
SK-HEP1 = experiment: Induction of apoptosis in human SK-HEP1 cells incubated for 2 hrs by fluorescence microscopic analysis; format: functional, cell-based; settings: SK-HEP1, 2 h
Jurkat = experiment: Induction of apoptosis in human Jurkat cells; format: functional, cell-based
PC-3 [1] = experiment: Antiproliferative activity against human PC-3 cells; format: functional, cell-based
HepG2 [2] = experiment: Induction of apoptosis in human HepG2 cells incubated for 72 hrs by PI/Annexin V-FITC analysis; format: functional, cell-based; settings: HepG2, 72 h
LNCaP [3] = experiment: Antiproliferative activity against human LNCaP cells incubated for 3 days; format: functional, cell-based; settings: 72 h
MCF7 [4] = experiment: Antiproliferative activity against human MCF7 cells; format: functional, cell-based
HepG2 [5] = experiment: Induction of apoptosis in human HepG2 cells incubated for 48 hrs by PI/Annexin V-FITC analysis; format: functional, cell-based; settings: HepG2, 48 h
[6] = Induction of apoptosis in human HK-1 cells; format: functional, cell-based
Kasumi 1 = experiment: Induction of apoptosis in human Kasumi 1 cells assessed as reduction in cell viability incubated for 72 hrs by CCK-8 assay; format: functional, cell-based; settings: Kasumi 1, 72 h
[7] = Cytotoxicity against human KK cells assessed as reduction in cell viability measured after 5 days by crystal violet staining based analysis; format: functional; settings: 120 h
HeLa = experiment: Induction of apoptosis in human HeLa cells incubated for 2 hrs by fluorescence microscopic analysis; format: functional, cell-based
HL-60 [8] = experiment: Induction of apoptosis in human HL-60 cells; format: functional, cell-based
HCT-116 [9] = experiment: Cytotoxicity against human HCT-116 assessed as reduction in cell viability by MTT assay; format: functional, cell-based
SW480 [10] = experiment: Induction of cell death in human SW480 cells incubated for 48 hrs by trypan blue staining based analysis; format: functional; settings: SW480, 48 h
HepG2 [11] = experiment: Induction of apoptosis in human HepG2 cells incubated for 24 hrs; format: functional, cell-based; settings: HepG2, 24 h
KG-1 [12] = experiment: Cytotoxicity against human KG-1 alpha cells; format: functional, cell-based
B16 = experiment: Growth inhibition of mouse B16 cells; format: functional, cell-based
MDA-MB-231 [13] = experiment: Antiproliferative activity against human MDA-MB-231 cells; format: functional, cell-based
HCT-116 [14] = experiment: Induction of cell death in human HCT-116 cells incubated for 48 hrs by trypan blue staining based analysis; format: functional; settings: HCT-116, 48 h
[15] = Cytotoxicity against human HRA cells assessed as reduction in cell viability measured after 5 days by crystal violet staining based analysis; format: functional; settings: 120 h
HepG2 [16] = experiment: Induction of apoptosis in human HepG2 beta-catenin cells incubated for 48 hrs by PI/Annexin V-FITC analysis; format: functional, cell-based; settings: HepG2, 48 h
U-937 = experiment: Cytotoxicity against human U-937 cells measured after 24 hrs by MTT assay; format: functional, cell-based; settings: U-937, 24 h
A549 = experiment: Antiproliferative activity against human A549 cells; format: functional, cell-based
REH = experiment: Induction of apoptosis in human REH cells; format: functional, cell-based
MCF7 [17] = experiment: Induction of apoptosis in human MCF7 cells assessed as inhibition of cell viability; format: functional, cell-based
DU-145 = experiment: Antiproliferative activity against human DU-145 cells incubated for 3 days; format: functional, cell-based; settings: DU-145, 72 h
K562 = experiment: Cytotoxicity against human K562 cells incubated for 48 hrs by CCK-8 assay; format: functional, cell-based; settings: K562, 48 h
HepG2 [18] = experiment: Induction of apoptosis in human HepG2 beta-catenin cells incubated for 72 hrs by PI/Annexin V-FITC analysis; format: functional, cell-based; settings: HepG2, 72 h
[19] = Cytotoxicity against human KFR cells assessed as reduction in cell viability measured after 5 days by crystal violet staining based analysis; format: functional; settings: 120 h
MDA-MB-231 [20] = experiment: Induction of cell death in human MDA-MB-231 cells; format: functional, cell-based
MDA-MB-231 [21] = experiment: Induction of apoptosis in human MDA-MB-231 cells assessed as inhibition of cell viability; format: functional, cell-based
[22] = Inhibition of proliferation in human Jurkat cells assessed as reduction in cell viability incubated for 48 hrs by CCK-8 assay; format: functional, cell-based
HepG2 [23] = experiment: Induction of apoptosis in human HepG2 cells incubated for 72 hrs; format: functional, cell-based; settings: HepG2, 72 h
THP-1 = experiment: Induction of apoptosis in human THP-1 cells; format: functional, cell-based
HL-60 [24] = experiment: Induction of apoptosis in human HL-60 cells assessed as reduction in cell viability incubated for 72 hrs by CCK-8 assay; format: functional, cell-based; settings: HL-60, 72 h
[25] = Cytotoxicity against human KF cells assessed as reduction in cell viability measured after 5 days by crystal violet staining based analysis; format: functional; settings: 120 h
PC-3 [26] = experiment: Antiproliferative activity against human PC-3 cells incubated for 3 days; format: functional, cell-based; settings: PC-3, 72 h
HL-60 [27] = experiment: Cytotoxicity against human HL-60 cells measured after 24 hrs by MTT assay; format: functional, cell-based; settings: HL-60, 24 h
HepG2 [28] = experiment: Induction of cell death in human HepG2 cells assessed as lethal dose; format: functional; settings: read-out: LD50 (the source's name)
B16-F10 = experiment: Induction of cell death in mouse B16-F10 cells; format: functional, cell-based
SW480 [29] = experiment: Induction of apoptosis in human SW480 cells incubated for 2 hrs by fluorescence microscopic analysis; format: functional, cell-based; settings: SW480, 2 h
Huh-7 = experiment: Induction of cell death in human Huh-7 cells; format: functional, cell-based
KG-1 [30] = experiment: Cytotoxicity against human KG-1 alpha cells incubated for 48 hrs by CCK-8 assay; format: functional, cell-based; settings: KG-1, 48 h
LNCaP [31] = experiment: Antiproliferative activity against human LNCaP cells; format: functional, cell-based

## CC(C)=CCC[C@](C)(O)[C@H]1CC[C@]2(C)[C@@H]1[C@H](O)C[C@@H]1[C@@]3(C)CC[C@H](O[C@@H]4O[C@H](CO)[C@@H](O)[C@H](O)[C@H]4O)C(C)(C)[C@@H]3CC[C@]12C [GINSENOSIDE RH2]
SK-HEP1
  IC50: 3.15 µg/mL (≈ 5.06 µM)
Jurkat
  IC50: 35 µM
PC-3 [1]
  EC50: 5.5 µM
HepG2 [2]
  IC50: 58.1 µM
LNCaP [3]
  IC50: 17 µM
MCF7 [4]
  EC50: 52.5 µM
HepG2 [5]
  IC50: 100 µM
[6]
  IC50: 12 µM
Kasumi 1
  IC50: 60.1 µM
[7]
  IC50: 45 µM
HeLa
  IC50: 2.52 µg/mL (≈ 4.05 µM)
HL-60 [8]
  IC50: 25 µM
HCT-116 [9]
  IC50: 19.6 µM
SW480 [10]
  IC50: 35 µM
HepG2 [11]
  IC50: 42.1 µM
KG-1 [12]
  IC50: 75 µM
B16
  IC50: 4.1 µg/mL (≈ 6.58 µM)
MDA-MB-231 [13]
  EC50: 57.4 µM
HCT-116 [14]
  IC50: 35 µM
[15]
  IC50: 30 µM
HepG2 [16]
  IC50: 129 µM
U-937
  IC50: 38 µM
A549
  IC50: 28.5 µg/mL (≈ 45.8 µM)
REH
  IC50: 40 µM
MCF7 [17]
  IC50: 50 µM
DU-145
  IC50: 38 µM
K562
  IC50: 60 µM
HepG2 [18]
  IC50: 83.3 µM
[19]
  IC50: 41 µM
MDA-MB-231 [20]
  IC50: 39.9 µM
MDA-MB-231 [21]
  IC50: 50 µM
[22]
  IC50: 35 µM
HepG2 [23]
  IC50: 1.65 µg/mL (≈ 2.65 µM)
THP-1
  IC50: 15 µg/mL (≈ 24.1 µM)
THP-1; read-out: LC50 (the source's name)
  CC50: 15 µg/mL (≈ 24.1 µM)
HL-60 [24]
  IC50: 25.6 µM
[25]
  IC50: 40 µM
PC-3 [26]
  IC50: 35 µM
HL-60 [27]
  IC50: 38 µM
HepG2 [28]
  CC50: 10 µM
B16-F10
  IC50: 35.6 µM
SW480 [29]
  IC50: 4.06 µg/mL (≈ 6.52 µM)
Huh-7
  IC50: 39 µM
KG-1 [30]
  IC50: 60 µM
LNCaP [31]
  EC50: 4.4 µM
